Measured values: the NIST ThermoML archive (doi:10.1021/je500381c)

How the values were obtained:
[1] = xn = mol fraction of the nth substance listed; settings: x1 = 1; for mass density / viscosity: 100 kPa, Liquid; for mass density: Vibrating tube method; for surface tension liquid-gas: Drop volume
[2] = refractive index (Na D-line) (dimensionless); xn = mol fraction of the nth substance listed; settings: 100 kPa, Liquid, Standard Abbe refractometry, x1 = 1
[3] = for viscosity / mass density: 100 kPa, Liquid; for mass density: Vibrating tube method
[4] = refractive index (Na D-line) (dimensionless); settings: 101.33 kPa, Liquid, Standard Abbe refractometry

OCC1CCCCC1 [cyclohexylmethanol] + CC12CC3CC(C)(C1)CC(C)(C3)C2
Settings	mass density, [1] [kg/m3]	refractive index, [2]	surface tension liquid-gas, [1] [mN/m]	viscosity, [1] [mPa·s]
293.15 K	929.76	1.4629	–	37.75
298.15 K	926.25	1.4612	32.43	28.67
303.15 K	922.71	1.4592	–	22.34
308.15 K	919.14	–	–	17.57
313.15 K	915.53	1.455	–	14.09
318.15 K	911.88	–	–	11.43
323.15 K	908.19	1.4507	–	9.354
328.15 K	904.45	–	–	7.766
333.15 K	900.67	1.4463	–	6.462

OCC1CCCCC1 [cyclohexylmethanol] + CCC12CC3CC(CC(C3)C1)C2
Settings	mass density, [1] [kg/m3]	refractive index, [2]	surface tension liquid-gas, [1] [mN/m]	viscosity, [1] [mPa·s]
293.15 K	929.76	1.4629	–	37.75
298.15 K	926.25	1.4612	32.43	28.67
303.15 K	922.71	1.4592	–	22.34
308.15 K	919.14	–	–	17.57
313.15 K	915.53	1.455	–	14.09
318.15 K	911.88	–	–	11.43
323.15 K	908.19	1.4507	–	9.354
328.15 K	904.45	–	–	7.766
333.15 K	900.67	1.4463	–	6.462

CCCCCCCO [heptan-1-ol]
Settings	mass density, [3] [kg/m3]	refractive index, [4]	viscosity, [3] [mPa·s]
293.15 K	822.28	1.4236	6.887
298.15 K	818.79	1.422	5.812
303.15 K	815.28	1.4203	4.95
308.15 K	811.74	–	4.245
313.15 K	808.16	1.4156	3.654
318.15 K	804.56	–	3.17
323.15 K	800.92	1.4115	2.768
328.15 K	797.24	–	2.428
333.15 K	793.52	1.4077	2.141

Settings	surface tension liquid-gas [mN/m]
[3], 298.15 K, Drop volume	26.23

CCCCCCCO [heptan-1-ol] + CC12CC3CC(C1)CC(C)(C3)C2
Settings	mass density, [1] [kg/m3]	refractive index, [2]	surface tension liquid-gas, [1] [mN/m]	viscosity, [1] [mPa·s]
293.15 K	822.28	1.4236	–	6.887
298.15 K	818.79	1.422	26.23	5.812
303.15 K	815.28	1.4203	–	4.95
308.15 K	811.74	–	–	4.245
313.15 K	808.16	1.4156	–	3.654
318.15 K	804.56	–	–	3.17
323.15 K	800.92	1.4115	–	2.768
328.15 K	797.24	–	–	2.428
333.15 K	793.52	1.4077	–	2.141

CCCCCCCO [heptan-1-ol] + CC12CC3CC(C)(C1)CC(C)(C3)C2
Settings	mass density, [1] [kg/m3]	refractive index, [2]	surface tension liquid-gas, [1] [mN/m]	viscosity, [1] [mPa·s]
293.15 K	822.28	1.4236	–	6.887
298.15 K	818.79	1.422	26.23	5.812
303.15 K	815.28	1.4203	–	4.95
308.15 K	811.74	–	–	4.245
313.15 K	808.16	1.4156	–	3.654
318.15 K	804.56	–	–	3.17
323.15 K	800.92	1.4115	–	2.768
328.15 K	797.24	–	–	2.428
333.15 K	793.52	1.4077	–	2.141

CCCCCCCO [heptan-1-ol] + CCC12CC3CC(CC(C3)C1)C2
Settings	mass density, [1] [kg/m3]	refractive index, [2]	surface tension liquid-gas, [1] [mN/m]	viscosity, [1] [mPa·s]
293.15 K	822.28	1.4236	–	6.887
298.15 K	818.79	1.422	26.23	5.812
303.15 K	815.28	1.4203	–	4.95
308.15 K	811.74	–	–	4.245
313.15 K	808.16	1.4156	–	3.654
318.15 K	804.56	–	–	3.17
323.15 K	800.92	1.4115	–	2.768
328.15 K	797.24	–	–	2.428
333.15 K	793.52	1.4077	–	2.141
